Data: patent US9879050B2, “Substituted urea depsipeptide analogs as activators of the CLPP endopeptidase” (priority 2013, dated 2018)
Converted amounts (≈) assume the structure as drawn. Like-named read-outs stand apart in the source and are kept apart here.

How the values were obtained:
[1] = tested on: S. pyogenes ATCC 700294; assay: Minimal inhibitory concentration, microbroth dilution; format: cell-based
How it was run: (§1)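 Twofold serial dilutions in broth per CLSI M7-A7 microbroth dilution, incubated aerobically overnight at 37° C. MIC read visually as lowest concentration preventing bacterial growth.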

[2] = Cytotoxicity assay, CellTiter-Glo cell viability; format: cell-based; conditions: African green monkey; Vero cells, 72 hours; read-out: Cytotoxicity IC50
How it was run: (§2)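 Vero cells seeded overnight at 37 °C in DMEM with 10% FBS, then exposed to serial dilutions of compound for 72 h. Viability read by CellTiter-Glo luminescence; IC50 from duplicates, given as the range of two independent experiments.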

[3] = biological target: T1, S. aureus ClpP (Sa-ClpP) (Staphylococcus aureus, UniProt Q2G036); assay: ClpP activation, casein-BODIPY digestion assay (first described method); format: biochemical; conditions: first described ClpP activation assay (**); 10 μM saClpP, 25 μg/ml BODIPY FL casein, 37° C.; read-out: ClpP Activation EC50
T1 construct: made in house; host or cells: E. coli BL21 (DE3)
T1 sequence (Q2G036 whole entry): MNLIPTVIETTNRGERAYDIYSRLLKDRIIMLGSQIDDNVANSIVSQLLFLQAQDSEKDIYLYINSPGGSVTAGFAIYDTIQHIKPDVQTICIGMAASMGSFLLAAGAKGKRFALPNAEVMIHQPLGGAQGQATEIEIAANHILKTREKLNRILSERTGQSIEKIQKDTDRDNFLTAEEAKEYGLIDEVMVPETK
Protocol: The compounds were assayed in a casein digestion assay in order to determine their effect on ClpP activation. Briefly, the assay was carried out using S. aureus ClpP (“Sa-ClpP”) overexpressed in E. coli BL21 (DE3) and purified in a two-step process. Purity of the protein was assessed through SDS PAGE analysis. EC50 evaluations were conducted in triplicate in a 20 μl assay format using a method adapted from Maurizi et al. (Methods Enzymol. (1994) 244:314-331.). Each well contained 10 μM saClpP, 25 μg/ml BODIPY FL casein (Invitrogen Corporation, San Diego, Calif.), and test compound in concentrations ranging between 0-100 μM in assay buffer (50 mM Tris pH 8, 200 mM KCl, and 1 mM TCEP). The reaction took place at 37° C. Fluorescence (excitation 485 nm; emission 528 nm) was measured in five minute intervals over a 45 min period using a BioTek HT fluorescence microplate reader (BioTek Instruments, Inc., Winooski, Vt.). Velocity of each reaction was calculated and data was fit to a dose response curve using GraphPad Prism® software (GraphPad Software, Inc., La Jolla, Calif.). EC50 is the effective concentration of compound which causes 50% activation of S. aureus ClpP in the foregoing BODIPY FL casein assay.

[4] = tested on: E. coli K12ΔtolC; assay: Minimal inhibitory concentration, microbroth dilution; format: cell-based
How it was run: (§3)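 Following CLSI M7-A7 microbroth dilution, twofold serial dilutions of compound (top final concentration 200 μM) were combined with an equal volume of broth inoculum at about 10^5 cfu/mL. Plates were incubated aerobically at 37 °C overnight, and the MIC was the lowest concentration preventing visible growth.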

[5] = tested on: S. aureus ATCC 29213; assay: as above; format: cell-based
How it was run: as §3

[6] = tested on: B. subtilis ATCC 23857; assay: as above; format: cell-based
How it was run: as §3

[7] = tested on: E. faecails ATCC 33186; assay: as above; format: cell-based; conditions: Enterococcus faecalis, ATCC33186, read-out: Minimal Inhibitory Concentration E. faecails ATCC 33186
How it was run: as §3

[8] = tested on: S. pneumoniae DAW27; assay: as above; format: cell-based; conditions: Streptococcus pneumoniae, DAW27, read-out: Minimal Inhibitory Concentration S. pneumoniae DAW27
How it was run: as §3

[9] = biological target: T2, Sa-ClpP (Staphylococcus aureus, UniProt Q2G036); assay: ADEP displacement fluorescence polarization assay; format: binding, S. aureus; conditions: 1 μM Sa-ClpP, 50 nM FP probe ADEP 2591; read-out: ADEP Displacement IC50
T2 construct: made in house; host or cells: E. coli BL21 (DE3)
T2 sequence (Q2G036 whole entry): as above
How it was run: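 Displacement of TAMRA-labelled ADEP 2591 probe (50 nM) from 1 μM Sa-ClpP, pre-equilibrated 1 h in Tris·HCl pH 8.0 with 2% DMSO, then 120 min at room temperature with compound, triplicate. Polarization (mP) read ex 530/em 579 nm, normalised to 20 μM ADEP 2378 and DMSO controls; four-parameter fit.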

[10] = tested on: S. pneumoniae R6; assay: Minimal inhibitory concentration, microbroth dilution; format: cell-based
How it was run: as §1

[11] = tested on: Vero (kidney epithelial cells; ATCC CCL-81); assay: Cytotoxicity assay, CellTiter-Glo cell viability; format: cell-based; conditions: Vero cells, 72 hours
How it was run: as §2

[12] = tested on: S. aureus NRS70; assay: Minimal inhibitory concentration, microbroth dilution; format: cell-based
How it was run: as §3

[13] = tested on: S. aureus USA 300 ΔClpP; assay: as above; format: cell-based, Staphylococcus aureus; conditions: ClpP inactivated strain
How it was run: as §3

[14] = tested on: S. aureus USA 300; assay: as above; format: cell-based
How it was run: as §3

[15] = Streptococcus pyogenes, ATCC700294, read-out: Minimal Inhibitory Concentration S. pyogenes ATCC 700294
[16] = Staphylococcus aureus, ATCC29213, read-out: Minimal Inhibitory Concentration S. aureus ATCC 29213
[17] = Bacillus subtilis, ATCC23857, read-out: Minimal Inhibitory Concentration B. subtilis ATCC 23857
[18] = Streptococcus pneumoniae, R6, read-out: Minimal Inhibitory Concentration S. pneumoniae R6
[19] = Staphylococcus aureus, NRS70, read-out: Minimal Inhibitory Concentration S. aureus NRS70
[20] = Streptococcus pneumoniae, R6; read-out: Minimal Inhibitory Concentration S. pneumoniae R6
[21] = Streptococcus pyogenes, ATCC700294; read-out: Minimal Inhibitory Concentration S. pyogenes ATCC 700294
[22] = Staphylococcus aureus, NRS70; read-out: Minimal Inhibitory Concentration S. aureus NRS70
[23] = Staphylococcus aureus, ATCC29213; read-out: Minimal Inhibitory Concentration S. aureus ATCC 29213
[24] = Staphylococcus aureus, USA300; read-out: Minimal Inhibitory Concentration S. aureus USA 300
[25] = Bacillus subtilis, ATCC23857; read-out: Minimal Inhibitory Concentration B. subtilis ATCC 23857

Row | SMILES | MIC [1, 15] | IC50 at 72 h [2] | EC50 [3] | Minimal Inhibitory Concentration E. coli K12ΔtolC [4] | MIC [5, 16] | MIC [6, 17] | MIC [7] | MIC [8] | IC50 [9] | MIC [10, 18] | IC50 [11] | MIC [12, 19] | Minimal Inhibitory Concentration S. aureus USA 300 ΔClpP [13] | MIC ([14]; Staphylococcus aureus, USA300, read-out: Minimal Inhibitory Concentration S. aureus USA 300) | MIC [10, 20] | MIC [1, 21] | MIC [12, 22] | MIC [5, 23] | MIC [14, 24] | MIC [6, 25]
1 | C[C@@H]1C[C@H]2C(=O)OC[C@H](NC(=O)[C@H](Cc3ccccc3)NC(=O)Nc3ccccc3)C(=O)N3CCC[C@H]3C(=O)N3CCCC[C@H]3C(=O)N[C@@H](C)C(=O)N2C1 [Compound 1, (S)—N-((2R,6S,8aS,14aS,20S,23aS)-2,6-Dimethyl-5,8,14,19,23-Pentaoxooctadecahydro-1H,5H,14H,19H-Pyrido[2,1-I]Dipyrrolo[2,1-C:2′,1′-L][1]Oxa[4,7,10,13]Tetraazacyclohexadecin-20-Yl)-3-Phenyl-2-(3-Phenylureido)Propanamide] | 1.56 µM (≈ 1.16 µg/mL) | > 100 µM | 3.6 ± 0.4 µM | 200 µM | 6.25 µM (≈ 4.65 µg/mL) | 1.56 µM (≈ 1.16 µg/mL) | 3.13 µM (≈ 2.33 µg/mL) | 0.78 µM (≈ 0.58 µg/mL) | 6.72 ± 0.4 µM |  |  |  |  |  |  |  |  |  |  | 
2 | Cc1ccc(NC(=O)N[C@@H](Cc2cc(F)cc(F)c2)C(=O)N[C@@H]2C(=O)N3C[C@H](O)CC3C(=O)N(C)[C@@H](C)C(=O)N[C@@H](C)C(=O)N3C[C@@H](C)CC3C(=O)O[C@H]2C)cc1 (stereo partly drawn) [Compound 31, (S)-3-(3,5-Difluorophenyl)-N-((2S,6S,9S,11aS,13R,17S,18S,20aS)-13-Hydroxy-2,6,9,10,18-Pentamethyl-5,8,11,16,20-Pentaoxohexadecahydro-1H,5H,16H-Dipyrrolo[2,1-C:2′,1′-L][1]Oxa[4,7,10,13]Tetraazacyclohexadecin-17-Yl)-2-(3-(P-Tolyl)Ureido)Propanamide] | 0.78 µM (≈ 0.622 µg/mL) |  |  |  | 0.39 µM (≈ 0.311 µg/mL) | 0.39 µM (≈ 0.311 µg/mL) |  |  |  | 0.195 µM (≈ 0.156 µg/mL) | > 100 µM | 0.39 µM (≈ 0.311 µg/mL) | >200 µM |  |  |  |  |  |  | 
3 | Cc1ccc(NC(=O)N[C@@H](Cc2cc(F)cc(F)c2)C(=O)N[C@@H]2C(=O)N3CCCC3C(=O)N(C)[C@@H]([C@H](C)O)C(=O)N[C@@H](C)C(=O)N3C[C@@H](C)CC3C(=O)O[C@H]2C)cc1 (stereo partly drawn) [Compound 35, (S)-3-(3,5-Difluorophenyl)-N-((2S,6S,9S,11aS,17S,18S,20aS)-9-((S)-1-Hydroxyethyl)-2,6,10,18-Tetramethyl-5,8,11,16,20-Pentaoxohexadecahydro-1H,5H,16H-Dipyrrolo[2,1-C:2′,1′-L][1]Oxa[4,7,10,13]Tetraazacyclohexadecin-17-Yl)-2-(3-(P-Tolyl)Ureido)Propanamide] | 0.39 µM (≈ 0.317 µg/mL) |  |  |  | 0.2 µM (≈ 0.162 µg/mL) | 0.2 µM (≈ 0.162 µg/mL) |  |  |  | 0.049 µM (≈ 0.0398 µg/mL) | 55.7 ± 3.6 µM | 0.1 µM (≈ 0.0812 µg/mL) | 200 µM | 0.2 µM (≈ 0.162 µg/mL) |  |  |  |  |  | 
4 | C[C@H]1CC2C(=O)O[C@@H](C)[C@H](NC(=O)[C@H](Cc3cc(F)cc(F)c3)NC(=O)Nc3ccc(OC(F)(F)F)cc3)C(=O)N3CCCC3C(=O)N(C)[C@@H]([C@H](C)O)C(=O)N[C@@H](C)C(=O)N2C1 (stereo partly drawn) [Compound 36, (S)-3-(3,5-Difluorophenyl)-N-((2S,6S,9S,11aS,17S,18S,20aS)-9-((S)-1-Hydroxyethyl)-2,6,10,18-Tetramethyl-5,8,11,16,20-Pentaoxohexadecahydro-1H,5H,16H-Dipyrrolo[2,1-C:2′,1′-L][1]Oxa[4,7,10,13]Tetraazacyclohexadecin-17-Yl)-2-(3-(4-(Trifluoromethoxy)Phenyl)Ureido)Propanamide] |  |  |  |  |  |  |  |  |  |  |  |  | 50 µM |  | 0.024 µM (≈ 0.0212 µg/mL) | 0.2 µM (≈ 0.176 µg/mL) | 0.05 µM (≈ 0.0441 µg/mL) | 0.1 µM (≈ 0.0882 µg/mL) | 0.1 µM (≈ 0.0882 µg/mL) | 0.1 µM (≈ 0.0882 µg/mL)
5 | CCc1ccc(NC(=O)N[C@@H](Cc2cc(F)cc(F)c2)C(=O)N[C@@H]2C(=O)N3CCCC3C(=O)N(C)[C@@H]([C@H](C)O)C(=O)N[C@@H](C)C(=O)N3C[C@@H](C)CC3C(=O)O[C@H]2C)cc1 (stereo partly drawn) [Compound 37, (S)-3-(3,5-Difluorophenyl)-2-(3-(4-Ethylphenyl)Ureido)-N-((2S,6S,9S,11aS,17S,18S,20aS)-9-((S)-1-Hydroxyethyl)-2,6,10,18-Tetramethyl-5,8,11,16,20-Pentaoxohexadecahydro-1H,5H,16H-Dipyrrolo[2,1-C:2′,1′-L][1]Oxa[4,7,10,13]Tetraazacyclohexadecin-17-Yl)Propanamide] |  |  |  |  |  |  |  |  |  |  |  |  | 100 µM |  | 0.024 µM (≈ 0.0198 µg/mL) | 0.1 µM (≈ 0.0826 µg/mL) | 0.1 µM (≈ 0.0826 µg/mL) | 0.1 µM (≈ 0.0826 µg/mL) | 0.1 µM (≈ 0.0826 µg/mL) | 0.05 µM (≈ 0.0413 µg/mL)
6 | C[C@@H]1CC2C(=O)O[C@@H](C)[C@H](NC(=O)[C@H](Cc3cc(F)cc(F)c3)NC(=O)Nc3ccc(OC(F)(F)F)cc3)C(=O)N3CCCC3C(=O)N(C)[C@@H]([C@H](C)O)C(=O)N[C@@H](C)C(=O)N2C1 (stereo partly drawn) [Compound 41, (S)-3-(3,5-Difluorophenyl)-N-((2R,6S,9S,11aS,17S,18S,20aS)-9-((S)-1-Hydroxyethyl)-2,6,10,18-Tetramethyl-5,8,11,16,20-Pentaoxohexadecahydro-1H,5H,16H-Dipyrrolo[2,1-C:2′,1′-L][1]Oxa[4,7,10,13]Tetraazacyclohexadecin-17-Yl)-2-(3-(4-(Trifluoromethoxy)Phenyl)Ureido)Propanamide] |  |  |  |  |  |  |  |  |  |  |  |  | 50 µM |  | 0.02 µM (≈ 0.0176 µg/mL) | 0.1 µM (≈ 0.0882 µg/mL) | 0.01 µM (≈ 0.00882 µg/mL) | 0.02 µM (≈ 0.0176 µg/mL) | 0.02 µM (≈ 0.0176 µg/mL) | 0.01 µM (≈ 0.00882 µg/mL)
7 | CCc1ccc(NC(=O)N[C@@H](Cc2cc(F)cc(F)c2)C(=O)N[C@@H]2C(=O)N3CCCC3C(=O)N(C)[C@@H]([C@H](C)O)C(=O)N[C@@H](C)C(=O)N3C[C@H](C)CC3C(=O)O[C@H]2C)cc1 (stereo partly drawn) [Compound 42, (S)-3-(3,5-Difluorophenyl)-2-(3-(4-Ethylphenyl)Ureido)-N-((2R,6S,9S,11aS,17S,18S,20aS)-9-((S)-1-Hydroxyethyl)-2,6,10,18-Tetramethyl-5,8,11,16,20-Pentaoxohexadecahydro-1H,5H,16H-Dipyrrolo[2,1-C:2′,1′-L][1]Oxa[4,7,10,13]Tetraazacyclohexadecin-17-Yl)Propanamide] |  |  |  |  |  |  |  |  |  |  |  |  | 100 µM |  | 0.01 µM (≈ 0.00826 µg/mL) | 0.05 µM (≈ 0.0413 µg/mL) | 0.02 µM (≈ 0.0165 µg/mL) | 0.05 µM (≈ 0.0413 µg/mL) | 0.1 µM (≈ 0.0826 µg/mL) | 0.01 µM (≈ 0.00826 µg/mL)
